± gives the standard deviation of the averaged measurements.
How the values were obtained:
[1] = compound: COc1cc2c(cc1O)CC[C@@H]1[C@@H]2CC[C@]2(C)[C@@H](O)CC[C@@H]12 [2-METHOXYESTRADIOL]; assay: surviving fraction relative to DMSO-only wells; higher = less growth inhibition; conditions: exposure time: 5 days
Procedure, shortened: (§1)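 Lines were retained only if, across three screens, replicate Pearson r was >0.7 and median Z' was >0.3. Viability was measured as CellTiter-Glo luminescence and reported as surviving fraction relative to the median of DMSO-only wells. Readings followed 10 minutes at room temperature, after log-phase tumour cells seeded at 250–500 per well in 384-well plates had been exposed, from 24 hours after seeding, continuously for five days to inhibitors at 0.5, 1, 5, 10, 50, 100, 500 and 1000 nM.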

[2] = compound: CS(=O)(=O)CCNCc1ccc(-c2ccc3ncnc(Nc4ccc(OCc5cccc(F)c5)c(Cl)c4)c3c2)o1 [LAPATINIB]; assay: as above; conditions: exposure time: 5 days
Procedure, shortened: as §1

Test System | surviving fraction ([1]; 0.5 nM) | surviving fraction ([1]; 1 nM) | surviving fraction ([1]; 5 nM) | surviving fraction ([1]; 10 nM) | surviving fraction ([1]; 50 nM) | surviving fraction ([1]; 100 nM) | surviving fraction ([1]; 500 nM) | surviving fraction ([1]; 1000 nM) | surviving fraction ([2]; 0.5 nM) | surviving fraction ([2]; 1 nM) | surviving fraction ([2]; 5 nM) | surviving fraction ([2]; 10 nM) | surviving fraction ([2]; 50 nM) | surviving fraction ([2]; 100 nM) | surviving fraction ([2]; 500 nM) | surviving fraction ([2]; 1000 nM)
CAL72 BONE | 1.03 ± 0.092 | 0.999 ± 0.14 | 1.01 ± 0.11 | 1.02 ± 0.13 | 1.05 ± 0.099 | 1.02 ± 0.18 | 0.848 ± 0.12 | 0.447 ± 0.2 | 1.13 ± 0.081 | 1.1 ± 0.061 | 1.16 ± 0.083 | 1.11 ± 0.055 | 1.11 ± 0.015 | 1.12 ± 0.096 | 1.02 ± 0.077 | 0.951 ± 0.17
CAL120 BREAST | 0.915 ± 0.051 | 0.912 ± 0.083 | 0.944 ± 0.076 | 0.927 ± 0.029 | 0.931 ± 0.071 | 0.933 ± 0.021 | 0.676 ± 0.025 | 0.316 ± 0.03 | 1.02 ± 0.052 | 1.03 ± 0.044 | 1.02 ± 0.043 | 1 ± 0.039 | 1.04 ± 0.042 | 1.03 ± 0.075 | 0.998 ± 0.052 | 0.994 ± 0.045
CASKI CERVIX | 0.889 ± 0.044 | 0.923 ± 0.029 | 0.899 ± 0.078 | 0.939 ± 0.063 | 1.02 ± 0.057 | 1.05 ± 0.052 | 0.683 ± 0.1 | 0.0593 ± 0.004 | 0.884 ± 0.037 | 0.902 ± 0.013 | 0.952 ± 0.042 | 0.818 ± 0.042 | 0.775 ± 0.044 | 0.685 ± 0.021 | 0.426 ± 0.013 | 0.321 ± 0.013
CHLA90 AUTONOMIC GANGLIA | 0.969 ± 0.059 | 0.89 ± 0.077 | 0.879 ± 0.074 | 0.888 ± 0.022 | 0.997 ± 0.047 | 0.998 ± 0.029 | 0.896 ± 0.08 | 0.663 ± 0.005 | 0.964 ± 0.031 | 0.99 ± 0.07 | 1.01 ± 0.052 | 0.947 ± 0.051 | 0.965 ± 0.06 | 0.981 ± 0.11 | 0.931 ± 0.073 | 0.875 ± 0.11
CME SYNOVIAL | 1.17 ± 0.12 | 1.01 ± 0.079 | 1.19 ± 0.026 | 1.08 ± 0.014 | 1.26 ± 0.11 | 1.16 ± 0.15 | 0.711 ± 0.14 | 0.38 ± 0.027 | 1.13 ± 0.2 | 1.4 ± 0.13 | 1.43 ± 0.1 | 1.28 ± 0.12 | 1.26 ± 0.096 | 1.35 ± 0.19 | 1.2 ± 0.059 | 1.14 ± 0.16
COLO320DM LARGE INTESTINE | 1.14 ± 0.11 | 1.11 ± 0.12 | 1.08 ± 0.15 | 1.08 ± 0.078 | 1.09 ± 0.15 | 0.965 ± 0.056 | 0.3693 ± 0.0033 | 0.266 ± 0.0093 | 1.01 ± 0.08 | 1.09 ± 0.016 | 1.14 ± 0.026 | 1.2 ± 0.082 | 1.06 ± 0.015 | 1.15 ± 0.083 | 1.1 ± 0.05 | 1.12 ± 0.075
DU4475 BREAST | 0.835 ± 0.14 | 0.807 ± 0.045 | 0.849 ± 0.11 | 0.901 ± 0.23 | 0.782 ± 0.17 | 0.746 ± 0.066 | 0.452 ± 0.12 | 0.114 ± 0.044 | 0.907 ± 0.062 | 1.1 ± 0.13 | 1.02 ± 0.079 | 0.944 ± 0.017 | 1.07 ± 0.12 | 0.957 ± 0.11 | 1.14 ± 0.11 | 0.932 ± 0.025
H23 LUNG | 0.97 ± 0.025 | 0.949 ± 0.017 | 1 ± 0.035 | 0.963 ± 0.039 | 0.975 ± 0.06 | 1.03 ± 0.021 | 0.749 ± 0.019 | 0.265 ± 0.004 | 1.02 ± 0.071 | 1.1 ± 0.075 | 0.9837 ± 0.0059 | 1.01 ± 0.019 | 0.861 ± 0.039 | 0.834 ± 0.031 | 0.4077 ± 0.0038 | 0.367 ± 0.023
HCC78 LUNG | 0.781 ± 0.22 | 0.786 ± 0.076 | 0.866 ± 0.094 | 1.02 ± 0.24 | 0.827 ± 0.14 | 0.759 ± 0.14 | 0.298 ± 0.087 | 0.0893 ± 0.036 | 0.98 ± 0.029 | 0.972 ± 0.093 | 1.01 ± 0.038 | 0.795 ± 0.26 | 0.82 ± 0.075 | 0.944 ± 0.1 | 0.857 ± 0.12 | 0.872 ± 0.12
HCC202 BREAST | 1.1 ± 0.39 | 1.22 ± 0.36 | 1.12 ± 0.29 | 1.02 ± 0.19 | 1.23 ± 0.062 | 1.04 ± 0.27 | 0.713 ± 0.32 | 0.564 ± 0.23 | 1.3 ± 0.2 | 0.845 ± 0.19 | 1.17 ± 0.43 | 0.937 ± 0.17 | 0.905 ± 0.14 | 0.726 ± 0.31 | 0.383 | 0.221 ± 0.029
